Where two headings read alike, the source gives them in different places.
Biological target: HCV NS3 protease (UniProt P26663)
Format: biochemical, HCV genotype 1b
Parameters: rows headed: IC50 (μM); IC50 (μM)
Method: Recombinant HCV NS3 Protease/NS4A Cofactor Peptide Radiometric Assay
The enzyme was cloned, expressed and prepared according to the protocol described in Example 36. The enzyme was stored at −80° C., thawed on ice and diluted just prior to use in the assay buffer containing the NS4A cofactor peptide.
The substrate used for the NS3 protease/NS4A cofactor peptide radiometric assay, DDIVPC-SMSYTW, is cleaved between the cysteine and the serine residues by the enzyme. The sequence DDIVPC-SMSYTW corresponds to the NS5A/NS5B natural cleavage site in which the cysteine residue in P2 has been substituted for a proline. […] (molar ratio enzyme:cofactor 1:100) in the absence or presence of inhibitors. The separation of substrate from products is performed by adding avidin-coated agarose beads to the assay mixture followed by filtration. The amount of SMS[^125I-Y]TW product found in the filtrate allows for the calculation of the percentage of substrate conversion and of the percentage of inhibition.
The enzymatic reaction was initiated by the addition of the enzyme/NS4A peptide solution and the assay mixture was incubated for 40 min at 23° C. under gentle agitation. Ten (10) μL of 0.5N NaOH were added and 10 μL 1 M MES, pH 5.8 were added to quench the enzymatic reaction.
A non-linear curve fit with the Hill model was applied to the inhibition-concentration data, and the 50% effective concentration (IC50) was calculated by the use of SAS software (Statistical Software System; SAS Institute, Inc. Cary, N.C.). […]
The NS2-NS5B-3′ non coding region was cloned by RT-PCR into the pCR®3 vector (Invitrogen) using RNA extracted from the serum of an HCV genotype 1b infected individual (provided by Dr. Bernard Willems, Hôpital St-Luc, Montréal, Québec, Canada). The NS3-NS4A DNA region was then subcloned by PCR into the pFastBac™ HTa baculovirus expression vector (Gibco/BRL). The vector sequence includes a region encoding a 28-residue N-terminal sequence which contains a hexahistidine tag. The Bac-to-Bac™ baculovirus expression system (Gibco/BRL) was used to produce the recombinant baculovirus. The full length mature NS3 and NS4A heterodimer protein (His-NS3-NS4AFL) was expressed by infecting 10^6 Sf21 cells/mL with the recombinant baculovirus at a multiplicity of infection of 0.1-0.2 at 27° C. The infected culture was harvested 48 to 64 h later by centrifugation at 4° C. The cell pellet was homogenized in 50 mM NaPO4, pH 7.5, 40% glycerol (w/v), 2 mM β-mercaptoethanol, in presence of a cocktail of protease inhibitors. His-NS3-NS4AFL was then extracted from the cell lysate with 1.5% NP-40, 0.5% Triton X-100, 0.5M NaCl, and a DNase treatment. After ultracentrifugation, the soluble extract was diluted 4-fold and bound on a Pharmacia Hi-Trap Ni-chelating column. […] The His-NS3-NS4AFL was stored at −80° C. in 50 mM sodium phosphate, pH 7.5, 10% (w/v) glycerol, 0.5 M NaCl, 0.25 M imidazole, 0.1% NP-40. It was thawed on ice and diluted just prior to use. The protease activity of His-NS3-NS4AFL was assayed in 50 mM Tris-HCl, pH 8.0, 0.25 M sodium citrate, 0.01% (w/v) n-dodecyl-β-D-maltoside, 1 mM TCEP. Five (5) μM of the internally quenched substrate anthranilyl-DDIVPAbu[C(O)—O]-AMY(3-NO2)TW-OH in presence of various concentrations of inhibitor were incubated with 1.5 nM of His-NS3-NS4AFL for 45 min at 23° C. […] The reaction was terminated with the addition of 1M MES, pH 5.8. Fluorescence of the N-terminal product was monitored on a Perkin-Elmer LS-50B fluorometer equipped with a 96-well plate reader (excitation wavelength: 325 nm; emission wavelength: 423 nm).
The following tables list compounds representative of the invention.

Chain of HCV NS3 protease (P26663 1027-1206, other chains not shown): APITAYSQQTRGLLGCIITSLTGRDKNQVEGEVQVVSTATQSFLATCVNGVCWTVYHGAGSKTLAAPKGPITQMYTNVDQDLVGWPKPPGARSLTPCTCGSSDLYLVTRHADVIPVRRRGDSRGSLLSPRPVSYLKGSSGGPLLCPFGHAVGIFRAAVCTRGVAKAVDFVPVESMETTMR

| SMILES | IC50 (Table 6) | IC50 (Table 7) |
| --- | --- | --- |
| C=CC1CC1(NC(=O)C1CC(Oc2cc(-c3csc(NC(C)=O)n3)nc3cc(N(C)C)ccc23)CN1C(=O)C(NC(=O)OC(C)(C)C)C(C)(C)C)C(=O)O (centres unmarked) [compound 628] | 11 nM |  |
| C=CC1CC1(NC(=O)C1CC(Oc2cc(-c3csc(NC(C)C)n3)nc3cc(N(C)C)ccc23)CN1C(=O)C(NC(=O)OC(C)(C)C)C(C)(C)C)C(=O)O (centres unmarked) [compound 629] | 20 nM |  |
| C=CC1CC1(NC(=O)C1CC(Oc2cc(-c3csc(NC(C)=O)n3)nc3cc(N(CC)CC)ccc23)CN1C(=O)C(NC(=O)OC(C)(C)C)C(C)(C)C)C(=O)O (centres unmarked) [compound 630] | 43 nM |  |
| C=CC1CC1(NC(=O)C1CC(Oc2cc(-c3cnn(C)c3)nc3cc(OC)ccc23)CN1C(=O)C(NC(=O)OC(C)(C)C)C(C)(C)C)C(=O)O (centres unmarked) [compound 701] |  | 28 nM |
| C=CC1CC1(NC(=O)C1CC(Oc2cc(C=Cc3ccccc3)nc3cc(OC)ccc23)CN1C(=O)C(NC(=O)OC(C)(C)C)C(C)(C)C)C(=O)O (centres unmarked) [compound 702] |  | 100 nM |
| C=CC1CC1(NC(=O)C1CC(Oc2cc(OCC)nc3cc(OC)ccc23)CN1C(=O)C(NC(=O)OC(C)(C)C)C(C)(C)C)C(=O)O (centres unmarked) [compound 703] |  | 47 nM |
| C=CC1CC1(NC(=O)C1CC(Oc2cc(N3CCc4ccccc43)nc3cc(OC)ccc23)CN1C(=O)C(NC(=O)OC(C)(C)C)C(C)(C)C)C(=O)O (centres unmarked) [compound 704] |  | 240 nM |
| C=CC1CC1(NC(=O)C1CC(Oc2cc(N3CCOCC3)nc3cc(OC)ccc23)CN1C(=O)C(NC(=O)OC(C)(C)C)C(C)(C)C)C(=O)O (centres unmarked) [compound 705] |  | 130 nM |
| C=CC1CC1(NC(=O)C1CC(Oc2cc(-c3cccs3)nc3cc(OC)ccc23)CN1C(=O)C(NC(=O)OC(C)(C)C)C(C)(C)C)C(=O)O (centres unmarked) [compound 706] |  | 32 nM |
| C=CC1CC1(NC(=O)C1CC(Oc2cc(-c3nccs3)nc3cc(OC)ccc23)CN1C(=O)C(NC(=O)OC(C)(C)C)C(C)(C)C)C(=O)O (centres unmarked) [compound 707] |  | 23 nM |
| C=CC1CC1(NC(=O)C1CC(Oc2cc(N(C)c3ccccc3)nc3cc(OC)ccc23)CN1C(=O)C(NC(=O)OC(C)(C)C)C(C)(C)C)C(=O)O (centres unmarked) [compound 708] |  | 150 nM |
| C=CC1CC1(NC(=O)C1CC(Oc2cc(-c3csc(N)n3)nc3cc(OC)ccc23)CN1C(=O)C(NC(=O)OC(C)(C)C)C(C)(C)C)C(=O)O (centres unmarked) [compound 709] |  | 21 nM |
| C=CC1C[C@]1(NC(=O)[C@@H]1C[C@@H](Oc2cc(C(=O)O)nc3cc(OC)ccc23)CN1C(=O)[C@@H](NC(=O)OC(C)(C)C)C(C)(C)C)C(=O)O (some centres unmarked) [compound 710] |  | 685 nM |
| C=CC1CC1(NC(=O)C1CC(Oc2cc(-c3csc(C)n3)nc3cc(OC)ccc23)CN1C(=O)C(NC(=O)OC(C)(C)C)C(C)(C)C)C(=O)O (centres unmarked) [compound 711] |  | 16 nM |
| C=CC1C[C@]1(NC(=O)[C@@H]1C[C@@H](Oc2cc(N(C)C)nc3cc(OC)ccc23)CN1C(=O)[C@@H](NC(=O)OC(C)(C)C)C(C)(C)C)C(=O)O (some centres unmarked) [compound 712] |  | 100 nM |
| C=CC1CC1(NC(=O)C1CC(Oc2cc(-c3cscn3)nc3cc(OC)ccc23)CN1C(=O)C(NC(=O)OC(C)(C)C)C(C)(C)C)C(=O)O (centres unmarked) [compound 713] |  | 26 nM |
| C=CC1CC1(NC(=O)C1CC(Oc2cc(-c3csc(CC)n3)nc3cc(OC)ccc23)CN1C(=O)C(NC(=O)OC(C)(C)C)C(C)(C)C)C(=O)O (centres unmarked) [compound 714] |  | 12 nM |
| C=CC1CC1(NC(=O)C1CC(Oc2cc(-c3ccccn3)nc3cc(OC)ccc23)CN1C(=O)C(NC(=O)OC(C)(C)C)C(C)(C)C)C(=O)O (centres unmarked) [compound 715] |  | 31 nM |
| C=CC1CC1(NC(=O)C1CC(Oc2cc(-c3cccnc3)nc3cc(OC)ccc23)CN1C(=O)C(NC(=O)OC(C)(C)C)C(C)(C)C)C(=O)O (centres unmarked) [compound 716] |  | 79 nM |

| SMILES | IC50 (Table 6) | IC50 (Table 7) |
| --- | --- | --- |
| C=CC1CC1(NC(=O)C1CC(Oc2cc(-c3csc(NC)n3)nc3cc(OC)ccc23)CN1C(=O)C(NC(=O)OC(C)(C)C)C(C)(C)C)C(=O)O (centres unmarked) [compound 717] |  | 28 nM |
| C=CC1C[C@]1(NC(=O)[C@@H]1C[C@@H](Oc2cc(N)nc3cc(OC)ccc23)CN1C(=O)[C@@H](NC(=O)OC(C)(C)C)C(C)(C)C)C(=O)O (some centres unmarked) [compound 718] |  | 160 nM |
| C=CC1CC1(NC(=O)C1CC(Oc2cc(-c3csc(NC(C)=O)n3)nc3cc(OC)ccc23)CN1C(=O)C(NC(=O)OC(C)(C)C)C(C)(C)C)C(=O)O (centres unmarked) [compound 719] |  | 18 nM |
| C=CC1CC1(NC(=O)C1CC(Oc2cc(-c3cnn(C(C)(C)C)c3)nc3cc(OC)ccc23)CN1C(=O)C(NC(=O)OC(C)(C)C)C(C)(C)C)C(=O)O (centres unmarked) [compound 720] |  | 30 nM |
| C=CC1CC1(NC(=O)C1CC(Oc2cc(N3CCC(OC)CC3)nc3cc(OC)ccc23)CN1C(=O)C(NC(=O)OC(C)(C)C)C(C)(C)C)C(=O)O (centres unmarked) [compound 721] |  | 45 nM |
| C=CC1CC1(NC(=O)C1CC(Oc2cc(-c3csc(NCC)n3)nc3cc(OC)ccc23)CN1C(=O)C(NC(=O)OC(C)(C)C)C(C)(C)C)C(=O)O (centres unmarked) [compound 722] |  | 48 nM |
| C=CC1CC1(NC(=O)C1CC(Oc2cc(-c3csc(NC(C)C)n3)nc3cc(OC)ccc23)CN1C(=O)C(NC(=O)OC(C)(C)C)C(C)(C)C)C(=O)O (centres unmarked) [compound 723] |  | 47 nM |
| C=CC1CC1(NC(=O)C1CC(Oc2cc(N3CCC(C)CC3)nc3cc(OC)ccc23)CN1C(=O)C(NC(=O)OC(C)(C)C)C(C)(C)C)C(=O)O (centres unmarked) [compound 724] |  | 75 nM |
| C=CC1CC1(NC(=O)C1CC(Oc2cc(-c3ccncn3)nc3cc(OC)ccc23)CN1C(=O)C(NC(=O)OC(C)(C)C)C(C)(C)C)C(=O)O (centres unmarked) [compound 725] |  | 46 nM |
| C=CC1C[C@]1(NC(=O)[C@@H]1C[C@@H](Oc2cc(C(C)C)nc3cc(OC)ccc23)CN1C(=O)[C@@H](NC(=O)OC(C)(C)C)C(C)(C)C)C(=O)O (some centres unmarked) [compound 726] |  | 250 nM |
| C=CC1CC1(NC(=O)C1CC(Oc2cc(-c3cccnc3)nc3cc(OC)ccc23)CN1C(=O)C(NC(=O)OC(C)(C)C)C(C)(C)C)C(=O)O (centres unmarked) [compound 727] |  | 70 nM |
| C=CC1CC1(NC(=O)C1CC(Oc2cc(-c3csc(CS(C)(=O)=O)n3)nc3cc(OC)ccc23)CN1C(=O)C(NC(=O)OC(C)(C)C)C(C)(C)C)C(=O)O (centres unmarked) [compound 728] |  | 22 nM |
| C=CC1CC1(NC(=O)C1CC(Oc2cc(-c3cnccn3)nc3cc(OC)ccc23)CN1C(=O)C(NC(=O)OC(C)(C)C)C(C)(C)C)C(=O)O (centres unmarked) [compound 729] |  | 200 nM |
| C=CC1CC1(NC(=O)C1CC(Oc2cc(OC(C)C)nc3cc(OC)ccc23)CN1C(=O)C(NC(=O)OC(C)(C)C)C(C)(C)C)C(=O)O (centres unmarked) [compound 730] |  | 42 nM |
| C=CC1CC1(NC(=O)C1CC(Oc2cc(OCCC)nc3cc(OC)ccc23)CN1C(=O)C(NC(=O)OC(C)(C)C)C(C)(C)C)C(=O)O (centres unmarked) [compound 731] |  | 31 nM |
| C=CC1CC1(NC(=O)C1CC(Oc2cc(-c3csc(-c4csc(C)n4)n3)nc3cc(OC)ccc23)CN1C(=O)C(NC(=O)OC(C)(C)C)C(C)(C)C)C(=O)O (centres unmarked) [compound 732] |  | 20 nM |
| C=CC1CC1(NC(=O)C1CC(Oc2cc(-c3csc(NC(C)(C)C)n3)nc3cc(OC)ccc23)CN1C(=O)C(NC(=O)OC(C)(C)C)C(C)(C)C)C(=O)O (centres unmarked) [compound 733] |  | 28 nM |
| C=CC1CC1(NC(=O)C1CC(Oc2cc(SCC)nc3cc(OC)ccc23)CN1C(=O)C(NC(=O)OC(C)(C)C)C(C)(C)C)C(=O)O (centres unmarked) [compound 734] |  | 44 nM |
| C=CC1CC1(NC(=O)C1CC(Oc2cc(OCC(C)C)nc3cc(OC)ccc23)CN1C(=O)C(NC(=O)OC(C)(C)C)C(C)(C)C)C(=O)O (centres unmarked) [compound 735] |  | 58 nM |
